Experimental findings from publication PMC8092218, “NirA Is an Alternative Nitrite Reductase from Pseudomonas aeruginosa with Potential as an Antivirulence Target” (mBio, 2021) are described below.

The target in the assay is T1, PA4130 (NirA) (Pseudomonas aeruginosa, UniProt Q9HWQ1).
T1 construct: full ORF, N-terminal hexahistidine tag, plasmid pSK4130-N; coexpressed with E. coli cysG in E. coli NiCo21; IMAC and chitin column; monomer; siroheme and 4Fe-4S
The assay can be described thus: reduced methyl viologen oxidation assay, spectrophotometric; Griess diazotization. To be noted: electron acceptor; reduced methyl viologen or dithionite-reduced spinach ferredoxin as donor; anaerobic. The format is biochemical.

The structures appear in SMILES notation.

T1 sequence (Q9HWQ1 entry or part of it): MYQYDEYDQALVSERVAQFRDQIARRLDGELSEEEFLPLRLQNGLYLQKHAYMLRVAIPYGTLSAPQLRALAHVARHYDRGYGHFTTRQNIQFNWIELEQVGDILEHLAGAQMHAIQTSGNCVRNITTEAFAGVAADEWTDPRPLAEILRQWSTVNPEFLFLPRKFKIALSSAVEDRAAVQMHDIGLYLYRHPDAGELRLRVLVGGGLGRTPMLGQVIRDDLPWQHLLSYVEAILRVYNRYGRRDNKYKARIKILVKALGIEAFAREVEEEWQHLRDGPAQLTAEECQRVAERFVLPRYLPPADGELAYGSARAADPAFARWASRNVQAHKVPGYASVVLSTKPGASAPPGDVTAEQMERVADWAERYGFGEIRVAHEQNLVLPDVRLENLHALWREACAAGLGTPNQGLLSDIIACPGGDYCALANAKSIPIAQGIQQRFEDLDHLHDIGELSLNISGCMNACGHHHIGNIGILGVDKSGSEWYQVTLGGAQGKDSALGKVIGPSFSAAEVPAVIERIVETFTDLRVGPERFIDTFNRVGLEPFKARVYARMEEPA

With `O=NO` [nitrite], the “reduced methyl viologen oxidation assay, spectrophotometric; Griess diazotizatio” value is “PA4130 was able to oxidize MV only in the presence of nitrite”.
